Assay results published in patent US7009051B2, “4-(2-pyridyl) piperazines having 5HT7 receptor agonist activity” (Pfizer Inc, priority 2001, dated 2006).
Counter-ions that a name gives are not always drawn.

SMILES: c1cncc(COc2cccc(N3CCNCC3)n2)c1 (as salt: HCl) [II, 1-[6-(Pyridin-3-ylmethoxy)-pyridin-2-yl]-piperazine]
- melting point: 141 to 143 °C
